Values quoted from earlier work, collected in US20090023643A1, “Methods For Treating Acute Myocardial Infarction By Administering Calcitonin Gene Related Peptide And Compositions Containing The Same” (VasoGenix Pharmaceuticals, Inc., priority 2004, published 2009).

Assays:
[1] = system: IL-7; conditions: Fernandez et al 2000
[2] = system: IL-16; conditions: Dunzendorfer et al 2002-2003
[3] = system: IL-10; conditions: Torii et al 1997
[4] = system: B7-2; conditions: Ashana et al 1995; Torii et al 1997
[5] = system: IL-1β; conditions: Torii et al 1997
[6] = system: IL-12; conditions: Torii et al 1997
[7] = system: IGF-1 (insulin-like growth factor-1); conditions: R. Zfoncea et al 1997
[8] = system: TNF-α; conditions: lipopolysaccharide induced, macrophages; Feng et al 1997

CGRP
CGRP activity: cytokines inhibited or suppressed, IL-7; benefits [1]: Inhibits pre B-cell development and T-cell development | CGRP activity: cytokines inhibited or suppressed, IL-16; benefits [2]: Inhibits macrophage chemotaxis | CGRP activity: induced anti-inflammatory cytokines, IL-10; benefits [3]: Inhibits monocyte inflammation | CGRP activity: cytokines inhibited or suppressed, B7-2; benefits [4]: Inhibits Granulocyte-Macrophage Colony | CGRP activity: cytokines inhibited or suppressed, IL-1β; benefits [5]: Inhibits proliferation of T-cells | CGRP activity: cytokines inhibited or suppressed, IL-12; benefits [6]: Suppresses Natural Killer Cell Stimulating factor (NKSF) | expression of IGF-1 [7]: increases expression of IGF-1 | CGRP activity: cytokines inhibited or suppressed, TNF-α; benefits [8]: Inhibits lipopolysaccharide induced TNF-α in macrophages
